The source of these data is patent US11013786B2, “Therapy” (SELECTIMMUNE PHARMA AB, priority 2015, dated 2021).

One assay concerns IL-1β processing. The assay can be described thus: IL-1β processing in infected human bladder epithelial cells with caspase inhibition (Western blot). Type of assay: cell-based. Conditions: human bladder epithelial cells infected with acute cystitis strains, 4 h, pre-incubated with inhibitor 100 μM, 30 min. The protocol: Cells were cultured as described above, but in particular in 6-well plates (7×10^5 cells/well, Thermo Fisher Scientific), lysed with RIPA lysis buffer, supplemented with protease and phosphatase inhibitors (Roche Diagnostics). They may then be fractionated using NE-PER Nuclear and Cytoplasmic extraction reagents (Thermo Scientific). For Caspase inhibition, cells were pre-incubated with Z-VAD(OMe)-FMK (#BML-P416-0001, Enzo Life Science, 100 μM, 30 min). Supernatants were filtered and concentrated by trichloroacetic acid precipitation, followed by acetone desiccation. […] Bands were quantified by ImageJ. […]
Cell lysates and supernatants from infected cells were subjected to Western blot analysis, with antibodies specific for IL-1β. Two fragments of approximately 29 kDa and 16-18 kDa were detected, corresponding to the N-terminal pro-piece and mature IL-1β.

The next assay deals with IL-1β. The assay can be described thus: IL-1β in urine of treated infected Asc−/− mice (Western blot analysis of urine samples). Conditions: CFT073, IL-1RA (Anakinra) 1 mg i.p. daily. Type of assay: in vivo. The protocol: IL-1β, IL-6 and IL-8 concentrations in filtered supernatants (Syringe Filter w/0.2 um PES, VWR) were determined by Immulite 1000 (Siemens) and Il-1β concentrations in cell supernatants or urine by Human or Mouse Il-1b/IL-1F2 DuoSet ELISA kits (R&D Systems). Urine MMP-7 levels were quantified with Human total MMP-7 Immunoassay Quantikine® ELISA (R&D Systems).
Cells were cultured as described above, but in particular in 6-well plates (7×10^5 cells/well, Thermo Fisher Scientific), lysed with RIPA lysis buffer, supplemented with protease and phosphatase inhibitors (Roche Diagnostics). They may then be fractionated using NE-PER Nuclear and Cytoplasmic extraction reagents (Thermo Scientific). For Caspase inhibition, cells were pre-incubated with Z-VAD(OMe)-FMK (#BML-P416-0001, Enzo Life Science, 100 μM, 30 min). Supernatants were filtered and concentrated by trichloroacetic acid precipitation, followed by acetone desiccation. […] Bands were quantified by ImageJ.
To address the contribution of MMP-7 to pathology, Asc^−/− mice were also treated with an MMP inhibitor (Batimastat), (0.5 mg in 100 μl of PBS i.p. 30 minutes before, first three and last three days of infection, FIG. 6A). […] By immunohistochemistry, some retention of unprocessed IL-1β in bladder tissue was detected, consistent with the need for MMP-7 and IL-1R to secrete mature IL-1β.
(In general: In western blotting, separated proteins are transferred to a membrane and probed.)

In assay [1] the test system is Asc^−/− mice infected with E. coli CFT073. The assay can be described thus: Acute cystitis immunotherapy in the experimental urinary tract infection model (Asc−/− mice infected with E. coli CFT073). Type of assay: in vivo. Conditions: for macroscopic bladder pathology, edema and hyperemia: vs untreated.
[2] abbreviates: CFT073, Anakinra 1 mg i.p. daily, 7 days.

Entries after “also recorded” stand apart in the source; their conditions may differ. Peptide text beside a SMILES is read from it. * marks the point of attachment. Cbz = O=C(OCc1ccccc1)*; CH2F = FC*

Regarding `COC(=O)C[C@H](NC(=O)[C@H](C)NC(=O)[C@@H](NC(=O)OCc1ccccc1)C(C)C)C(=O)CF` [Z-VAD, Z-VAD(OMe)-FMK] (Cbz-Val-Ala-Asp(OMe)-CH2F), the “inhibition of IL-1β processing” value in the assay on IL-1β processing is “about 20%”.
For the molecule “Anakinra: IL-1 receptor antagonist, Anakinra (Kineret, SOBI)”, in the assay on IL-1β, the “mature IL-1β in urine” value is on record as “loss”. Moreover, in assay [1] (setting [2]), the mucosal integrity result is “maintained”; the mucosal neutrophil infiltrate entry is given as “prevented”; the “macroscopic bladder pathology, edema and hyperemia” value was “protected”. In assay [1] (CFT073, Anakinra 1 mg i.p. daily, 7 days after infection), the urine neutrophil numbers entry is “low”. Further, the “pathology in bladder tissue sections” value in assay [1] (CFT073, Anakinra 1 mg i.p. daily, 7 days, H&E) is “marked reduction”. In assay [1] (CFT073, Anakinra 1 mg i.p. daily, 7 days, listed as IL-1RA), the “macroscopic bladder pathology, edema and hyperemia” value is “prevented”. Also, the bacterial counts entry in assay [1] (CFT073, Anakinra 1 mg i.p. daily, urine, 7 days after infection) is “remained elevated”. Further, the “therapeutic effect / protection from acute cystitis” value in assay [1] (E. coli CFT073, Anakinra 1 mg in 100 μl PBS i.p. 30 min before and daily after infection, 7 days, vs untreated Asc−/− mice) is on record as “dramatic therapeutic effect; also recorded: protects; also recorded: prevented”.
